In patent publication US20090274731A1, “PRODUCTION OF ENVELOPED PHARMACEUTICAL DOSAGE FORMS” (ABBOTT GMBH & CO. KG, priority 2006, published 2009) one finds solubility data, which are given here for one molecule.

The series can be described thus: Relative solubility of paracetamol in the release media. Type of series: physicochemical. The conditions noted are these: in 20% ethanol compared with 0.01 M HCl; in words.

For the molecule `CC(=O)Nc1ccc(O)cc1` [paracetamol], the solubility entry is “distinctly more soluble”.
